pEC50: −log10 of the molar value.
Tests used:
[1] = molecular target: T1, P2Y6 receptor (Homo sapiens, UniProt Q15077); assay: Activation of P2Y6 receptor: receptor induced Ca2+ changes with fluo-4 in 1321N1 astrocytoma cells; assay type: cell-based
T1 construct: expressed in transfected cells; host or cells: 1321N1 human astrocytoma cell line
Procedure: Synthetic ligands were tested for activation of P2Y6 receptor by measuring receptor induced Ca^2+ changes with the fluorescent Ca^2+ indicator fluo-4. 1321N1 human astrocytoma cell lines either expressing P2Y2, P2Y4 or P2Y6 receptors were plated into 24-well plates. Two days after plating, fluorometric measurements were made and responses of cells to a serial dilution of ligands were determined P2Y6 receptor-mediated Ca^2+ fluorescent change was determined by normalized accumulation of fluorescent change of 3 timepoints after ligand administration subtracted by value from ACSF control. Changes in fluorescent intensity were plotted corresponding to ligand concention in GraphPad. Dose-response curve and EC50 for each ligand was estimated using nonlinear curve fit and Sigmoidal dose-response analysis. […] The sodium salt of compound 5 was only effective at elevating Ca^2+ levels when applied to cells expressing P2Y6 receptors and not effective in P2Y2, or P2Y4 receptor expressing cells. The ability of the sodium salt of compound 5 to elevate Ca^2+ signals in P2Y6 expressing cells was attenuated by addition of the P2Y6 receptor antagonist MRS2578.
(§1) Synthetic ligands were tested for activation of P2Y6 receptor by measuring receptor induced Ca^2+ changes with the fluorescent Ca^2+ indicator fluo-4, and results are shown in FIG. 10(A)-(K). 1321N1 human astrocytoma cell lines either expressing P2Y2, P2Y4 or P2Y6 receptors were plated into 24-well plates. Two days after plating, fluorometric measurements were made and responses of cells to a serial dilution of ligands were determined P2Y6 receptor-mediated Ca^2+ fluorescent change was determined by normalized accumulation of fluorescent change of 3 timepoints after ligand administration subtracted by value from ACSF control. Changes in fluorescent intensity were plotted corresponding to ligand concentration in GraphPad. Dose-response curve and EC50 for each ligand was estimated using nonlinear curve fit and Sigmoidal dose-response analysis. […]

[2] = system: PSAPP mice; assay: Contextual fear conditioning test (freezing behavior); assay type: in vivo, mouse
Procedure: On day one, animals were trained in a fear conditioning apparatus for a total of 7 minutes with a two-pairing paradigm of cue and mild foot shock (a 30-s acoustic-conditioned stimulus, 80 dB; a 2-s shock stimulus, 0.5 mA). To evaluate contextual fear learning, the animals were returned to the training context 24 hours post-training, and freezing behavior was scored for 5 minutes. Freezing behavior was monitored by MotorMonitor (Hamilton Kinder) and scored every 5 seconds.
In this study, the fear conditioning associative learning paradigm was used as a rapid cognition assay for PSAPP mice. This study allowed us to probe cognitive function with a single training day followed in 24 hours by tests for contextual and cued fear learning. Contextual fear learning is dependent upon a brain area that has been implicated as a locus for cognitive decline in AD: the hippocampus. Two pairings of CS-US for fear conditioning were followed 24 hours later by testing for contextual and cued fear learning. Previous studies have reported that PSAPP animals appear to have a selective hippocampus-dependent impairment in associative learning following two pairings of conditioned stimuli for fear conditioning.
This represents a decrease in the cognitive impairment observed in the untreated mice.

[3] = system: PSAPP mice; assay: Postmortem immunohistochemistry of plaque load in cortex and hippocampus; assay type: in vivo, mouse
Excerpt: (§2) Heterozygous mutant (K670N/M671L) APP (50% C57B6, 50% SJL) transgenic mice were crossed with heterozygous mutant (A246E) PS-1 (50% C57B6, 50% SJL) transgenic mice to generate heterozygous PSAPP transgenic mice (also referred to as PS-1/APP or PSAPP+/+ mice), which refers to animals heterozygous for the PS-1 A246E transgene and the APP K670N/M671L transgene. Non-transgenic control animals were littermates (also referred to as PSAPP_−/− mice) generated in the breeding for PSAPP transgenic animals. Mouse genotype was determined by Polymerase Chain Reaction (PCR). Both male and female mice of 6-7 months old were used for the experiments below. All animal experiments were performed in accordance with the Tufts Animal Care and Use Committee and with national regulations and policies.
Mice were perfused transcardially with 4% paraformaldehyde and 40 μm Coronal sections were collected. Sections were sequentially incubated in 0.3% H2O2 for 10 minutes, blocking solution for 2 hrs, blocking solution containing the primary antibody (rabbit anti-beta1-42; rabbit anti-beta1-40, from Chemicon International and rat anti-CD45) for 48 hours at 4° C., and blocking solution containing biotinylated antibody or fluorescently-labeled antibody for 2 hours at room temperature. Sections were visualized in a bright field microscope or a confocal microscope, and the optical density was obtained using MetaMorph software.
After repeated imaging, brains were fixed and subjected to postmortem immunohistochemistry with amyloid beta specific antibodies β1-40 and β1-42 to evaluate the plaque load (area occupied by immunostaining of plaque) in cortex and hippocampus.
PSB0474 was systemically administered to PSAPP mice via intraperitoneal injection for 2, 4 and 6 consecutive days. In one group, prior to evaluation and following to administration for 6 consecutive days, treatment was suspended for two weeks (6+2 weeks group). Brains were then fixed and plaque load was evaluated by immunostaining with the amyloid beta specific antibodies: β1-40 and β1-42. Representative images of plaque load in cortex and hippocampus from animals that received injections of PSB0474 according to the foregoing injection schedules are shown in FIG. 5(A)-(D). […] Whereas, when administration of PSB0474 was stopped for 2 weeks following six consecutive days of treatment (denoted as the 6+2 weeks group), β1-40 staining rebounded; although to a level lower than observed in mice treated with saline as a vehicle control. FIGS. 6A and 6B depict the reduction in plaque load (%) the cortex and hippocampus, respectively, in PSAPP mice after treatment with 3-phenacyl-UDP for 2, 4, or 6 consecutive days, as assayed by staining with the β1-40 antibody. FIGS. 6C-6F depict data obtained following administration of different dosages of PSB0474.
To generate these graphs showing plaque load, mice were euthanized, brain sections cut and antibodies directed against Aβ 42 were used to disclose Aβ plaques. Images were acquired digitally and an algorithm was applied to threshold the image so that plaques were isolated from the background. The algorithm then calculated the percent area of the field of view occupied by the plaques.

[4] = system: PSAPP mice; assay: Hippocampal long-term potentiation (LTP) recording, CA1, high-frequency stimulation; assay type: in vivo, mouse; conditions: acute treatment
Procedure: Hippocampal slices (350 μm thick) were prepared from 6-month-old PSAPP mice. Baseline responses were obtained every 10 seconds and Input-output (I/O) curves, paired-pulse modification and LTP were successively measured. The stimulation intensity was set to a level that gives a value of 30% of the maximum obtained. LTP were induced by high frequency stimulation (HFS, 100 pulses at 100 Hz, four times) or by theta-burst stimulation (TBS, 10 bursts at 5 Hz, repeated 10 times in 15 s intervals).
Accumulated evidence has shown that amyloid peptides naturally secreted or isolated from Alzheimer's brains impair synaptic plasticity, especially hippocampal long-term potentiation (Walsh et al., 2002). Therefore, we further performed LTP recordings in PASPP mice and investigated whether P2Y6 receptor-mediated plaque clearance affects synaptic plasticity. […] First, it was observed that LTP at the schaffer collateral synapse within the CA1 region was depressed in PSAPP mice, as compared with littermates (FIG. 8(A)).

[5] = system: PSAPP mice; assay: Two-photon in vivo imaging of methoxyX04-labeled amyloid plaques in barrel cortex; design: species or system mouse; conditions: vs ACSF
Excerpt: as §2
In this study, PSAPP mice were anesthetized using isoflurane and a thin-skull preparation was used to minimize the surface damage. Amyloid plaques were visualized with methoxyX04 labeling and blood plasma was labeled with Rhodamine dextran to facilitate re-localization of the same imaging area. Stack images were obtained using a two-photon system (Prairie Technologies) with excitation at 850 nm. The emission was detected by external photomultiplier tubes (525/70; DLCP 575; 607/45 nm).
Animals were anesthetized and immobilized in a stereotaxic frame. […]

[6] = molecular target: T2, P2Y4 receptor (Homo sapiens, UniProt P51582); assay: Ca2+ mobilization (fluo-4) in 1321N1 astrocytoma cells expressing P2Y4 receptor; assay type: cell-based; conditions: sodium salt; 1321N1 cells expressing P2Y4
T2 construct: expressed in transfected cells; host or cells: 1321N1 human astrocytoma cell line
Procedure: as §1, with “fluo-4.” for “fluo-4, and results are shown in FIG. 10(A)-(K).”, “concention” for “concentration”
(§3) Synthetic ligands were tested for activation of P2Y6 receptor by measuring receptor induced Ca^2+ changes with the fluorescent Ca^2+ indicator fluo-4, and results are shown in FIG. 10(A)-(K). […] Two days after plating, fluorometric measurements were made and responses of cells to a serial dilution of ligands were determined P2Y6 receptor-mediated Ca^2+ fluorescent change was determined by normalized accumulation of fluorescent change of 3 timepoints after ligand administration subtracted by value from ACSF control. […]

[7] = system: PSAPP mice; assay: Plasma cytokine levels in PSAPP mice; assay type: in vivo, mouse
Procedure: (§4) Inflammatory cytokines were assessed in mouse plasma of both wild type and PS1/APP mice (Alzheimer's mouse model) and the impact of intraperitoneal delivery of compound 5 on circulating cytokines was assessed. Seven daily intraperitoneal injections of 1 ug/kg of compound 5 were delivered to mice. 24 hours following the final injection, plasma was collected. Wildtype, age matched littermates and PSAPP mice (>6 months of age) were treated either with vehicle (phosphate buffered saline) or vehicle containing compound.

[8] = system: wildtype mice; assay: Plasma cytokine levels in wildtype mice; assay type: in vivo, mouse; conditions: wildtype animals, 1 ug/kg i.p. daily x7
Procedure: as §4

[9] = molecular target: T3, P2Y2 receptor (Homo sapiens, UniProt P41231); assay: Ca2+ mobilization (fluo-4) in 1321N1 astrocytoma cells expressing P2Y2 receptor; assay type: cell-based; conditions: sodium salt; 1321N1 cells expressing P2Y2
T3 construct: expressed in transfected cells; host or cells: 1321N1 human astrocytoma cell line
Procedure: as §1, with “fluo-4.” for “fluo-4, and results are shown in FIG. 10(A)-(K).”, “concention” for “concentration”
as §3

[10] = β1-42 antibody, i.p. daily 7 days, vs vehicle

T1 sequence (Q15077 whole entry): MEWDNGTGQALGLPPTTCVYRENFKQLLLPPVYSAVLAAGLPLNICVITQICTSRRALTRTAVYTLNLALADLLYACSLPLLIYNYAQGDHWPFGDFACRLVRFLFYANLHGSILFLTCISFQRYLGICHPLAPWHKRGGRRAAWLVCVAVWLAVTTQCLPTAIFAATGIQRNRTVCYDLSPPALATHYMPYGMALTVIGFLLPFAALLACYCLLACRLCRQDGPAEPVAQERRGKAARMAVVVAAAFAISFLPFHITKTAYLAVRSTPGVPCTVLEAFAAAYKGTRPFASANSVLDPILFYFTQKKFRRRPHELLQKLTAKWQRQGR
T3 sequence (P41231 whole entry): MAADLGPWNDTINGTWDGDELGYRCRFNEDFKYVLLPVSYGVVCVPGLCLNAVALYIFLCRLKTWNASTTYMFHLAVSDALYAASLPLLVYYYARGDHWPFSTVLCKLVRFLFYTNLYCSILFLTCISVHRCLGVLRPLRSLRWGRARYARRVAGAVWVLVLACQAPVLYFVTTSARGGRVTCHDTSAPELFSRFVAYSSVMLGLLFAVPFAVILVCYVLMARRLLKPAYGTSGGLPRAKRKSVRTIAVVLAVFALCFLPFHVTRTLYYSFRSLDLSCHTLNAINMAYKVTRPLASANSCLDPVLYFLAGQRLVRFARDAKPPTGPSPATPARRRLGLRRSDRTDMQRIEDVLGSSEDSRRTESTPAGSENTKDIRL
T2 sequence (P51582 whole entry): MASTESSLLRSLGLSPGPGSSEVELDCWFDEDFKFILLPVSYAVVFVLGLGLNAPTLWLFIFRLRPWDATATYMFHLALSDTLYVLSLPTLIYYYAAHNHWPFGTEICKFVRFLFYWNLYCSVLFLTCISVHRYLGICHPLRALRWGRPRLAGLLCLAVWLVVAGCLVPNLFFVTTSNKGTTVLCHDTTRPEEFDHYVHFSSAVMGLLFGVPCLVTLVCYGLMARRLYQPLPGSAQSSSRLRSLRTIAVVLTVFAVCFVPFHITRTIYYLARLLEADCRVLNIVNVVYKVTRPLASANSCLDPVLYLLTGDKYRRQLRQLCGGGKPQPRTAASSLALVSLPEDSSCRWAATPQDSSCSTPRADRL

S=C=Nc1cccc(NC(=S)NCCCCNC(=S)Nc2cccc(N=C=S)c2)c1 [MRS2578, reference compound]
effect of antagonist on Ca2+ signals elevated by sodium salt of compound 5 ([1]; P2Y6 expressing cells, antagonist added): attenuated

O=C(Cn1c(=O)ccn(C2OC(COP(=O)(O)OP(=O)(O)O)C(O)C2O)c1=O)c1ccccc1 (stereo not drawn) [PSB0474, 3-phenacyl-UDP]
memory deficit (freezing time), contextual fear conditioning ([2]; one week treatment with 1 ug/kg, vs vehicle): rescued the memory deficit
β1-40 staining ([3]; 6 consecutive days then stopped for 2 weeks, level still lower than saline vehicle): rebounded
effects on the efficacy endpoint (plaque load) ([3]; higher dose of 1 mg/kg, one week daily): smaller effects
immunoreactivity of β1-40 in cortex and hippocampus ([3]; i.p. for 4 consecutive days): significantly decreased
immunoreactivity of β1-40 in cortex and hippocampus ([3]; i.p. for 6 consecutive days): significantly decreased

O=c1ccn([C@@H]2O[C@H](COP(=O)(O)OP(=O)(O)O)[C@@H](O)[C@H]2O)c(=O)[nH]1 [UDP, uridine diphosphate]
LTP (fEPSP %) at schaffer collateral synapse, CA1 ([4]; vs ACSF): significantly increased
last 15 min potentiation, field excitatory postsynaptic potential (fEPSP) ([4]; comparable to littermates): significant increase
plaque load, day 4/day 1 ratio ([5]; FIG. 2D): reduces
number of plaques, day 4/day 1 ratio ([5]; FIG. 2E): reduces

O=c1ccn([C@@H]2O[C@H](COP(=O)(O)OP(=O)(O)O)C(O)[C@@H]2O)c(=O)n1Cc1noc2ccccc12 (stereo partly drawn) [compound 5]
elevating Ca2+ levels in P2Y4 receptor expressing cells [6]: not effective
plasma IL-2 level ([7]; 1 ug/kg i.p. daily x7): reduced
plasma IL-7 level ([7]; 1 ug/kg i.p. daily x7): reduced
plasma IL-9 level ([7]; 1 ug/kg i.p. daily x7): reduced
plasma IL-10 level ([7]; 1 ug/kg i.p. daily x7): reduced
plasma IL-15 level ([7]; 1 ug/kg i.p. daily x7): reduced
plasma MIG level ([7]; 1 ug/kg i.p. daily x7): reduced
plasma MIP1α level ([7]; 1 ug/kg i.p. daily x7): reduced
plasma IL-1β level ([7]; 1 ug/kg i.p. daily x7, 24 hours after final injection): reduced
plasma IL-2 level [8]: reduced
plasma IL-10 level [8]: reduced
elevating Ca2+ levels in P2Y2 receptor expressing cells [9]: not effective
freezing behavior (freezing %), contextual fear conditioning ([2]; i.p. daily for 7 consecutive days, vs vehicle control): significantly improved
elevating Ca2+ levels in cells expressing P2Y6 receptors ([1]; sodium salt, 1321N1 cells expressing P2Y6): effective
pEC50 ([1]; sodium salt, Ca2+ fluorescent change, 1321N1 cells expressing P2Y6 receptor): 7.92
Aβ plaque load (%) in cortex [3, 10]: substantial decrease
Aβ plaque load (%) in hippocampus [3, 10]: substantial decrease
